Data reported in paper PMC6283615, “Anilinoquinoline based inhibitors of trypanosomatid proliferation” (PLoS Neglected Tropical Diseases, 2018).
In brackets after ≈: the same amount, converted by molar mass. Where two headings read alike, the source gives them in different places.

Legend:
[1] = system: L. major amastigote; assay: L. major intracellular amastigote luciferase assay in RAW 264.7 macrophages; type: cell-based, Leishmania major; conditions: intracellular amastigotes in RAW 264.7 macrophages, 96 h
Method: Amastigote assays were performed using pLEXSY-hyg2-luciferase L. major transfected promastigotes and the murine RAW 264.7 macrophage cell line (ATCC TIB-71, Manassas, VA). Briefly, luciferase-expressing promastigotes of each Leishmania species were generated by adding a luciferase encoding region to the pLEXSY-hyg2 vector (Jena Biosciences, Germany) as described. One μg of the linearized pLEXSY-hyg2-luciferase vector were electroporated (480 V, 13 Ω, and 500 μF) into 4×10^7 Leishmania promastigotes. Selection for stable promastigote transfectants was carried out using hygromycin B (100 μg/mL). RAW 264.7 macrophages were maintained in growth medium (Dulbecco’s Modified Eagle’s Medium supplemented with heat-inactivated 10% FBS (Life Technologies)). Cells were harvested and resuspended in growth medium at 2.0×10^5 cells/mL, and 1×10^4 cells/well were dispensed (final volume 50 μL) in each well of a 384 well tissue-culture treated white plate using a EVO Freedom liquid handling system (Tecan, Durham, NC). Plates were incubated at 37°C in 5% CO2 for 24 h after which the culture medium was removed from each well using the EVO Freedom liquid handler. Metacyclic phase pLEXSY-hyg2-luciferase-Leishmania promastigotes (MOI = 1:10 L. major) were added to each assay plate well and allowed to infect the RAW 264.7 macrophages. After an overnight incubation, the growth medium was aspirated and each well was washed three times with 40 μL of fresh growth medium to remove non-internalized promastigotes. After the third wash, 69.2 μL of growth medium was added to each well. Compound dilutions (final concentration ranges 0.5–10,000 ng/mL) were generated and dispensed using the liquid handling system. Compound treated plates were incubated at 37°C in 5% CO2 for 96 h. After incubation, 7.5 μL of a luciferin solution (Caliper Life Science, Waltham, MA) diluted to 150 μg/mL was added to each well, and the plates were incubated for 30 min at 37°C in the dark. Data were captured using an Infinite M200 plate reader (Tecan). EC50s were generated for each concentration response test using GraphPad Prism software 6.0.

[2] = system: T. cruzi amastigote (Tulahuen strain expressing β-galactosidase); assay: Intracellular T. cruzi assay in 3T3 cells (beta-galactosidase, 96 h); type: cell-based, Trypanosoma cruzi; conditions: read-out: T. cruzi amastigote EC50
Method: In a 96-well plate, 5×10^4 3T3 cells in DMEM without phenol red supplemented with 2% FBS were added to each well. Cells were incubated for 2 h to allow for attachment. Compounds were added in triplicates at 50 μM and in serial dilutions 1:2. To each well, 5×10^4 T. cruzi trypomastigotes (Tulahuen strain expressing β-galactosidase) were added and incubated at 37°C, 5% CO2 for 96 h. Following incubation, 50 μL of 500 μM chlorophenol Red-β-D-galactopyranoside (CPRG) in phosphate-buffered saline with 0.5% NP40 was added to each well and incubated at 37°C, 5% CO2 for 4 h. Absorbance was read at 590–595 nm.

[3] = system: T. b. brucei (strain 427); assay: T. b. brucei proliferation assay (PrestoBlue, 48 h); type: cell-based, Trypanosoma brucei brucei
Method: The assay was performed following a previously reported procedure. Briefly, in a 96-well plate, compounds were added in triplicates at 50 μM and in serial dilutions 1:2 in HMI-9 medium. To each well, 100 μL of 2.5×10^3 T. b. brucei (strain 427, received as a gift from Dr. C. C. Wang at UCSF) in HMI-9 medium was were added and incubated at 37°C, 5% CO2 for 48 h. Following incubation, 20 μL of PrestoBlue were added to each well and incubated for additional 4 h. Fluorescence was read at 530 nm excitation and 590 nm emission.

[4] = Rat hepatocyte intrinsic clearance; type: in vitro ADME; conditions: for hepatocyte CLint: hepatocytes
[5] = Human plasma protein binding; type: in vitro ADME; conditions: for fraction unbound: read-out: Human PPB (converted)
[6] = Human liver microsome intrinsic clearance; type: in vitro ADME; conditions: for microsomal CLint: liver microsomes
[7] = Aqueous solubility; type: physicochemical
[8] = LogD7.4; type: physicochemical; conditions: pH 7.4
[9] = system: HepG2 cells; assay: Drug toxicity to HepG2 cells (MTT, 48 h); type: cell-based, human; conditions: tested concentration ranges based on compound solubility
Method: HepG2 cells were cultured in complete Minimal Essential Medium prepared by supplementing MEM with 0.19% sodium bicarbonate, 10% heat inactivated FBS, 2 mM L-glutamine, 0.1 mM MEM non-essential amino, 0.009 mg/mL insulin, 1.76 mg/mL bovine serum albumin, 20 units/mL penicillin–streptomycin, and 0.05 mg/mL gentamycin. HepG2 cells cultured in complete MEM were first washed with 1× Hank’s Balanced Salt Solution (Invitrogen #14175095), trypsinized using a 0.25% trypsin/EDTA solution, assessed for viability using trypan blue, and resuspended at 250,000 cells/mL. Using a Tecan EVO Freedom robot, 38.3 μL of cell suspension were added to each well of clear, cell culture-treated 384-well microtiter plates for a final concentration of 9570 liver cells per well, and plated cells were incubated overnight in 5% CO2 at 37°C. Drug plates were prepared with the Tecan EVO Freedom using sterile 96 well plates containing twelve duplicate 1.6-fold serial dilutions of each test compound suspended in DMSO. 4.25 μL of diluted test compound was then added to the 38.3 μL of media in each well providing a […] final dilution of compound. Compounds were tested from a range of 57 ng/mL to 10,000 ng/mL for all assays. Mefloquine was used as a plate control for all assays with a concentration ranging from 113 ng/mL to 20,000 ng/mL. After a 48 h incubation period, 8 μL of a 1.5 mg/mL solution of MTT diluted in complete MEM media was added to each well. All plates were subsequently incubated in the dark for 1 h at room temperature. After incubation, the media and drugs in each well was removed by shaking the plate over sink, and the plates were left to dry in a fume hood for 15 mins. Next, 30 μL of isopropanol acidified by addition of HCl at a final concentration of 0.36% was added to dissolve the formazan dye crystals created by reduction of MTT. Plates are put on a 3-D rotator for 15–30 mins. Absorbance was determined in all wells using a Tecan iControl 1.6 Infinite plate reader.

[10] = Trypanosoma cruzi, TULAHUEN, NIH3T3, 96 h
[11] = intracellular in 3T3 cells, 96 h

CN1CCN(c2nccc(Nc3ccc4c(Nc5ccc(OCc6cccc(F)c6)c(Cl)c5)ccnc4c3)n2)CC1 [Compound 20]
EC50 ([1]; Leishmania major, RAW264.7): 1.2 µM
EC50 [2, 10]: 4.3 µM
EC50 ([3]; Trypanosoma brucei): 0.098 µM

CN1CCN(S(=O)(=O)c2ccc(-c3ccc4c(Nc5cccc(Cl)c5)ccnc4c3)cc2)CC1 [Compound 7]
EC50 ([1]; Leishmania major, RAW264.7): 3.4 µM
EC50 [2, 10]: > 50 µM
hepatocyte CLint [4]: 15 µL/min/1e6 cells
EC50 ([3]; Trypanosoma brucei): > 50 µM
fraction unbound [5]: < 0.01
microsomal CLint [6]: 150 µL/min/mg

CN1CCN(S(=O)(=O)c2cccc(-c3ccc4c(Nc5ccc(OCc6cccc(F)c6)c(Cl)c5)ccnc4c3)c2)CC1 [Compound 13]
EC50 ([1]; Leishmania major, RAW264.7): 0.2 µM
EC50 [2, 10]: > 50 µM
solubility [7]: < 1 µM
logD [8]: 4.8
hepatocyte CLint [4]: 24 µL/min/1e6 cells
EC50 ([3]; Trypanosoma brucei): 0.48 µM
fraction unbound [5]: < 0.01
microsomal CLint [6]: 110 µL/min/mg

CN1CCN(S(=O)(=O)c2ccc(-c3ccc4c(Nc5ccc(Cl)cn5)ccnc4c3)cc2)CC1 [Compound 5]
EC50 ([1]; Leishmania major, RAW264.7): 2.1 µM
EC50 [2, 10]: 2.8 µM
solubility [7]: < 1 µM
EC50 ([3]; Trypanosoma brucei): 0.27 µM
fraction unbound [5]: < 0.01

CN1CCN(c2ccc(Nc3ccc4c(Nc5cnccn5)ccnc4c3)cc2)CC1 [NEU-2096]
EC50 [1]: 7.9 µM
LogD7.4 [8]: 2.2
Rat Hepatocyte CLint [4]: 10 μL/min/10^6 cells
Human PPB [5]: 88%

CN1CCN(c2ccnc(Nc3ccc4c(Nc5cnccn5)ccnc4c3)n2)CC1 [NEU-2091]
EC50 [2, 11]: > 20 µM
LogD7.4 [8]: 2.8
Rat Hepatocyte CLint [4]: 9.3 μL/min/10^6 cells

COc1ncc(Nc2ccnc3cc(-c4ccc(S(=O)(=O)N5CCN(C)CC5)cc4)ccc23)cn1 [Compound 2]
EC50 ([1]; Leishmania major, RAW264.7): 3.1 µM
EC50 [2, 10]: > 50 µM
solubility [7]: 7.3 µM (≈ 3.58 µg/mL)
logD [8]: 3.1
EC50 ([3]; Trypanosoma brucei): 2.5 µM
fraction unbound [5]: 0.12

C[C@@H]1[C@H](O)[C@@H](C)/C=C/C=C/C=C/C=C/C=C/C=C/C=C/[C@H](O[C@@H]2O[C@H](C)[C@@H](O)[C@H](N)[C@@H]2O)C[C@@H]2O[C@](O)(C[C@@H](O)C[C@@H](O)[C@H](O)CC[C@@H](O)C[C@@H](O)CC(=O)O[C@H]1C)C[C@H](O)[C@H]2C(=O)O [Amphotericin B, reference compound]
EC50 ([1]; Leishmania major, RAW264.7): 0.036 µM
EC50 [2, 10]: 0.48 µM

COc1cnc(Nc2ccnc3cc(-c4ccc(S(=O)(=O)N5CCN(C)CC5)cc4)ccc23)cn1 [Compound 3]
EC50 ([1]; Leishmania major, RAW264.7): 19 µM
EC50 [2, 10]: 9.7 µM
solubility [7]: 3.2 µM (≈ 1.57 µg/mL)
logD [8]: 4.2
EC50 ([3]; Trypanosoma brucei): 0.62 µM
fraction unbound [5]: 0.03

CN1CCN(c2ccnc(Nc3ccc4c(Nc5ccc(OCc6cccc(F)c6)c(Cl)c5)ccnc4c3)n2)CC1 [Compound 19]
EC50 ([1]; Leishmania major, RAW264.7): 2.5 µM
EC50 [2, 10]: 2.7 µM
solubility [7]: 1 µM (≈ 0.57 µg/mL)
logD [8]: 4.7
hepatocyte CLint [4]: 4.6 µL/min/1e6 cells
EC50 ([3]; Trypanosoma brucei): 0.12 µM
microsomal CLint [6]: 21 µL/min/mg

COc1ccc(Nc2ccnc3cc(-c4cn[nH]c4)ccc23)cc1Cl [NEU-2087]
EC50 [1]: 29 µM
EC50 [2, 11]: > 50 µM
solubility [7]: 2 µM (≈ 0.702 µg/mL)
LogD7.4 [8]: 3.5
HepG2 TC50 [9]: 23 µM
Rat Hepatocyte CLint [4]: 5 μL/min/10^6 cells
EC50 [3]: 0.91 µM
Human PPB [5]: 97%
Human Liver Microsome CLint [6]: 8 µL/min/mg

CN1CCN(c2ncc(Nc3ccc4c(Nc5ccc(OCc6cccc(F)c6)c(Cl)c5)ccnc4c3)cn2)CC1 [Compound 18]
EC50 ([1]; Leishmania major, RAW264.7): 0.87 µM
EC50 [2, 10]: 2.7 µM
EC50 ([3]; Trypanosoma brucei): 0.16 µM

CN1CCN(S(=O)(=O)c2ccc(-c3ccc4c(Nc5cnccn5)ccnc4c3)cc2)CC1 [Compound 4]
EC50 ([1]; Leishmania major, RAW264.7): 20 µM
EC50 [2, 10]: 16 µM
solubility [7]: 4.2 µM (≈ 1.93 µg/mL)
logD [8]: 3.2
EC50 ([3]; Trypanosoma brucei): 0.91 µM
fraction unbound [5]: 0.06

COc1ccc(Nc2ccnc3cc(Nc4nccc(N5CCN(C)CC5)n4)ccc23)cc1Cl [NEU-2090]
EC50 [1]: 2.3 µM
EC50 [2, 11]: > 20 µM
solubility [7]: 570 µM (≈ 271 µg/mL)
LogD7.4 [8]: 3.3
HepG2 TC50 [9]: 7.6 µM
Rat Hepatocyte CLint [4]: 7.2 μL/min/10^6 cells
EC50 [3]: 0.35 µM
Human PPB [5]: 99%

CN1CCN(S(=O)(=O)c2ccc(-c3ccc4c(Nc5ccc(OC(F)(F)F)cc5)ccnc4c3)cc2)CC1 [Compound 10]
EC50 ([1]; Leishmania major, RAW264.7): 0.78 µM
EC50 [2, 10]: 1.4 µM
logD [8]: 4.5
hepatocyte CLint [4]: 79 µL/min/1e6 cells
EC50 ([3]; Trypanosoma brucei): 0.27 µM
fraction unbound [5]: < 0.01
microsomal CLint [6]: 280 µL/min/mg

CN1CCN(S(=O)(=O)c2ccc(-c3ccc4c(Nc5ccc(C(F)(F)F)nc5)ccnc4c3)cc2)CC1 [Compound 12]
EC50 ([1]; Leishmania major, RAW264.7): 6.2 µM
EC50 [2, 10]: 5.4 µM
logD [8]: 4.4
hepatocyte CLint [4]: 260 µL/min/1e6 cells
EC50 ([3]; Trypanosoma brucei): 0.7 µM
fraction unbound [5]: 0.02
microsomal CLint [6]: 390 µL/min/mg

CN1CCN(c2nccc(Nc3ccc4c(Nc5cnccn5)ccnc4c3)n2)CC1 [NEU-2094]
EC50 [2, 11]: > 50 µM
LogD7.4 [8]: 2.9

Cc1ccc(Nc2ccnc3cc(-c4ccc(S(=O)(=O)N5CCN(C)CC5)cc4)ccc23)cn1 [Compound 11]
EC50 ([1]; Leishmania major, RAW264.7): 3.9 µM
EC50 [2, 10]: 9.9 µM
logD [8]: 3.7
hepatocyte CLint [4]: 49 µL/min/1e6 cells
EC50 ([3]; Trypanosoma brucei): 0.69 µM
fraction unbound [5]: 0.08
microsomal CLint [6]: 400 µL/min/mg

CN1CCN(c2ccc(Nc3ccc4c(Nc5ccc(OCc6cccc(F)c6)c(Cl)c5)ccnc4c3)cc2)CC1 [Compound 17]
EC50 ([1]; Leishmania major, RAW264.7): 1.2 µM
EC50 [2, 10]: 2.1 µM
EC50 ([3]; Trypanosoma brucei): 0.12 µM

c1cnc(Nc2ccnc3cc(-c4cn[nH]c4)ccc23)cn1 [NEU-2088]
EC50 [1]: 3 µM
EC50 [2, 11]: > 50 µM
solubility [7]: 1 µM (≈ 0.288 µg/mL)
LogD7.4 [8]: 2.6
HepG2 TC50 [9]: 4.5 µM
Rat Hepatocyte CLint [4]: 5 μL/min/10^6 cells
EC50 [3]: 0.29 µM
Human Liver Microsome CLint [6]: 130 µL/min/mg

COc1ccc(Nc2ccnc3cc(-c4ccc(S(=O)(=O)N5CCN(C)CC5)cc4)ccc23)cc1 [Compound 9]
EC50 ([1]; Leishmania major, RAW264.7): 4.4 µM
EC50 [2, 10]: 1.9 µM
solubility [7]: 9 µM (≈ 4.4 µg/mL)
logD [8]: 4.2
hepatocyte CLint [4]: 58 µL/min/1e6 cells
EC50 ([3]; Trypanosoma brucei): 0.52 µM
microsomal CLint [6]: 350 µL/min/mg

Cc1ccc(Nc2ccnc3cc(-c4ccc(S(=O)(=O)N5CCN(C)CC5)cc4)ccc23)cc1Cl [Compound 8]
EC50 ([1]; Leishmania major, RAW264.7): 2.4 µM
EC50 [2, 10]: > 50 µM
EC50 ([3]; Trypanosoma brucei): 0.65 µM
microsomal CLint [6]: 290 µL/min/mg
